Several values for one entry are separate records, joined by “and”; a condition that tells them apart may be missing. Identical values can stand only once. Toxic doses and inconclusive results are not listed.
System: B6C3F1 mice, Lewis lung carcinoma iv, survival T/C
Assay: NCI In Vivo Anticancer Drug Screen. Data for tumor model Lewis Lung Carcinoma (intravenous) in B6C3F1 mice
Settings: endpoint: median survival time, higher = longer survival
Outline: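 Mice carrying transplanted tumors received test compound; survival in the treated group was divided by that of the vehicle-treated control group to give the T/C value.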

[1] = dose: 3.12 mg/kg/injection, schedule: Q01DX009 (ip), vehicle: saline
[2] = dose: 6.25 mg/kg/injection, schedule: Q01DX009 (ip), vehicle: saline
[3] = dose: 12.5 mg/kg/injection, schedule: Q01DX009 (ip), vehicle: saline
[4] = dose: 25.0 mg/kg/injection, schedule: Q01DX009 (ip), vehicle: saline
[5] = dose: 50.0 mg/kg/injection, schedule: Q01DX009 (ip), vehicle: saline
[6] = dose: 2.5 mg/kg/injection, schedule: Q01DX009 (ip), vehicle: saline
[7] = dose: 0.25 mg/kg/injection, schedule: Q01DX009 (ip), vehicle: saline
[8] = dose: 0.5 mg/kg/injection, schedule: Q01DX009 (ip), vehicle: saline
[9] = dose: 1.0 mg/kg/injection, schedule: Q01DX009 (ip), vehicle: saline
[10] = dose: 25.0 mg/kg/injection, schedule: Q01DX009 (ip), vehicle: Klucel (hydroxypropylcellulose) (HPC)
[11] = dose: 50.0 mg/kg/injection, schedule: Q01DX009 (ip), vehicle: Klucel (hydroxypropylcellulose) (HPC)
[12] = dose: 100.0 mg/kg/injection, schedule: Q01DX009 (ip), vehicle: Klucel (hydroxypropylcellulose) (HPC)
[13] = dose: 1.56 mg/kg/injection, schedule: Q01DX009 (ip), vehicle: saline
[14] = dose: 0.12 mg/kg/injection, schedule: Q01DX009 (ip), vehicle: saline
[15] = dose: 0.5 mg/kg/injection, schedule: Q01DX009 (ip), vehicle: water
[16] = dose: 1.0 mg/kg/injection, schedule: Q01DX009 (ip), vehicle: water
[17] = dose: 25.0 mg/kg/injection, schedule: Q01DX009 (ip), vehicle: suspension in saline
[18] = dose: 50.0 mg/kg/injection, schedule: Q01DX009 (ip), vehicle: suspension in saline
[19] = dose: 100.0 mg/kg/injection, schedule: Q01DX009 (ip), vehicle: suspension in saline
[20] = dose: 200.0 mg/kg/injection, schedule: Q01DX009 (ip), vehicle: suspension in saline

SMILES: CCCCNCCCNCCCNC(=O)c1csc(-c2csc(CCNC(=O)C(NC(=O)C(C)C(O)C(C)NC(=O)C(NC(=O)c3nc(C(CC(N)=O)NCC(N)C(N)=O)nc(N)c3C)C(OC3OC(CO)C(O)C(O)C3OC3OC(CO)C(O)C(OC(N)=O)C3O)c3cnc[nH]3)C(C)O)n2)n1 (configuration not stated)
- T/C (dose: 2.0 mg/kg/injection, schedule: Q01DX009 (ip), vehicle: saline): 112 % of control
- T/C (dose: 8.0 mg/kg/injection, schedule: Q01DX009 (ip), vehicle: saline): 155 % of control
- T/C (dose: 16.0 mg/kg/injection, schedule: Q01DX009 (ip), vehicle: saline): 184 % of control

SMILES: CC(=O)N(C)C
- T/C (dose: 122.5 mg/kg/injection, schedule: Q01DX009 (ip), vehicle: saline): 88 % of control
- T/C (dose: 225.0 mg/kg/injection, schedule: Q01DX009 (ip), vehicle: saline): 95 % of control
- T/C (dose: 450.0 mg/kg/injection, schedule: Q01DX009 (ip), vehicle: saline): 110 % of control
- T/C (dose: 900.0 mg/kg/injection, schedule: Q01DX009 (ip), vehicle: saline): 100 % of control
- T/C (dose: 1800.0 mg/kg/injection, schedule: Q01DX009 (ip), vehicle: saline): 93 % of control
- T/C (dose: 3600.0 mg/kg/injection, schedule: Q01DX009 (ip), vehicle: saline): 104 % of control

SMILES: O=c1[nH]c2c(ccc3cnccc32)c2c1CCC2
- T/C [1]: 109 % of control
- T/C [2]: 102 % of control
- T/C [3]: 105 % of control
- T/C [4]: 109 % of control

SMILES: O=C1N(CC2CO2)CCN1CC1CO1 (configuration not stated)
- T/C [3]: 114 % of control
- T/C [4]: 112 % of control
- T/C [5]: 114 % of control

SMILES: O=C1c2ccccc2C(=O)c2c(NCCNCCO)ccc(O)c21
- T/C [6]: 104 % of control
- T/C (dose: 5.0 mg/kg/injection, schedule: Q01DX009 (ip), vehicle: saline): 116 % of control
- T/C (dose: 10.0 mg/kg/injection, schedule: Q01DX009 (ip), vehicle: saline): 96 % of control
- T/C (dose: 20.0 mg/kg/injection, schedule: Q01DX009 (ip), vehicle: saline): 104 % of control
- T/C (dose: 40.0 mg/kg/injection, schedule: Q01DX009 (ip), vehicle: saline): 117 % of control
- T/C (dose: 80.0 mg/kg/injection, schedule: Q01DX009 (ip), vehicle: saline): 117 % of control

SMILES: COC(=O)C[C@](O)(CCC(C)(C)O)C(=O)O[C@@H]1C(OC)=C[C@]23CCCN2CCc2cc4c(cc2[C@H]13)OCO4
- T/C [7]: 98 % of control and 104 % of control
- T/C [8]: 103 % of control and 106 % of control
- T/C [9]: 94 % of control and 102 % of control

SMILES: Cc1c(-c2ccc(C3CCCCC3)cc2)nc2ccc(F)cc2c1C(=O)O
- T/C [10]: 96 % of control
- T/C [11]: 110 % of control
- T/C [12]: 118 % of control
- T/C (dose: 200.0 mg/kg/injection, schedule: Q01DX009 (ip), vehicle: Klucel (hydroxypropylcellulose) (HPC)): 112 % of control

SMILES: C/C(=N\NC(=S)N1CCN(c2ccccn2)CC1)c1ccccn1
- T/C (dose: 6.25 mg/kg/injection, schedule: Q01DX009 (ip), vehicle: water): 109 % of control
- T/C (dose: 12.5 mg/kg/injection, schedule: Q01DX009 (ip), vehicle: water): 104 % of control
- T/C (dose: 25.0 mg/kg/injection, schedule: Q01DX009 (ip), vehicle: water): 113 % of control

SMILES: N=C(N)CCCCCCCCC(=N)N
- T/C (dose: 0.79 mg/kg/injection, schedule: Q01DX009 (ip), vehicle: saline): 112 % of control
- T/C [13]: 119 % of control
- T/C [1]: 112 % of control
- T/C [2]: 124 % of control
- T/C (dose: 12.5 mg/kg/injection, schedule: Q01DX001 (ip), vehicle: saline): 97 % of control
- T/C [3]: 115 % of control
- T/C (dose: 25.0 mg/kg/injection, schedule: Q01DX001 (ip), vehicle: saline): 103 % of control
- T/C (dose: 50.0 mg/kg/injection, schedule: Q01DX001 (ip), vehicle: saline): 107 % of control

SMILES: NC(=O)c1[nH]nc(C2OC(CO)C(O)C2O)c1O (configuration not stated)
- T/C (dose: 0.31 mg/kg/injection, schedule: Q01DX009 (ip), vehicle: saline): 91 % of control and 105 % of control
- T/C (dose: 0.62 mg/kg/injection, schedule: Q01DX009 (ip), vehicle: saline): 98 % of control and 101 % of control
- T/C (dose: 1.25 mg/kg/injection, schedule: Q01DX009 (ip), vehicle: saline): 120 % of control and 122 % of control
- T/C [6]: 122 % of control

SMILES: CC[C@@]1(O)C(=O)OCc2c1cc1n(c2=O)Cc2cc3ccccc3nc2-1
- T/C (dose: 0.37 mg/kg/injection, schedule: Q01DX009 (ip), vehicle: saline with Tween-80): 102 % of control
- T/C (dose: 0.75 mg/kg/injection, schedule: Q01DX009 (ip), vehicle: saline with Tween-80): 105 % of control
- T/C (dose: 1.5 mg/kg/injection, schedule: Q01DX009 (ip), vehicle: saline with Tween-80): 122 % of control

SMILES: O=c1[nH]cccc1O
- T/C (dose: 16.0 mg/kg/injection, schedule: Q01DX009 (ip), vehicle: saline with Tween-80): 98 % of control
- T/C (dose: 32.0 mg/kg/injection, schedule: Q01DX009 (ip), vehicle: saline with Tween-80): 94 % of control
- T/C (dose: 64.0 mg/kg/injection, schedule: Q01DX009 (ip), vehicle: saline with Tween-80): 103 % of control
- T/C (dose: 256.0 mg/kg/injection, schedule: Q01DX009 (ip), vehicle: saline with Tween-80): 101 % of control

SMILES: CCCCCCCCCCCCN1C(C)=CS/C1=C\C=C\c1scc(C)[n+]1CCCCCCCCCCCC
- T/C (dose: 1.56 mg/kg/injection, schedule: Q01DX009 (ip), vehicle: saline with Tween-80): 90 % of control

SMILES: COc1cc(Cc2nccc3cc(OC)c(OC)cc23)c(C(C)=O)cc1OC
- T/C (dose: 12.5 mg/kg/injection, schedule: Q01DX009 (ip), vehicle: Klucel (hydroxypropylcellulose) (HPC)): 98 % of control
- T/C [10]: 120 % of control
- T/C [11]: 106 % of control
- T/C [12]: 101 % of control

SMILES: C/C=C(\C)c1cc(=O)c2c(C)cc3c(c2o1)C(=O)c1c(O)c(C2CC(C)(N(C)C)C(O)C(C)O2)cc(C2CC(N(C)C)C(O)C(C)O2)c1C3=O (configuration not stated)
- T/C (dose: 31.25 micrograms/kg/injection, schedule: Q01DX009 (ip), vehicle: saline): 98 % of control
- T/C (dose: 62.5 micrograms/kg/injection, schedule: Q01DX009 (ip), vehicle: saline): 101 % of control
- T/C (dose: 125.0 micrograms/kg/injection, schedule: Q01DX009 (ip), vehicle: saline): 101 % of control
- T/C (dose: 250.0 micrograms/kg/injection, schedule: Q01DX009 (ip), vehicle: saline): 98 % of control

SMILES: COc1cccc2c1C(=O)c1c(O)c3c(c(O)c1C2=O)C[C@@](O)(C(=O)CO)C[C@@H]3OC1CC(N)C(O)C(C)O1 (some centres not stated)
- T/C [14]: 94 % of control and 96 % of control and 98 % of control
- T/C (dose: 0.13 mg/kg/injection, schedule: Q01DX009 (ip), vehicle: saline): 102 % of control
- T/C [15]: 95 % of control and 100 % of control
- T/C [16]: 88 % of control
- T/C (dose: 2.0 mg/kg/injection, schedule: Q01DX009 (ip), vehicle: water): 90 % of control and 123 % of control
- T/C (dose: 4.0 mg/kg/injection, schedule: Q01DX009 (ip), vehicle: water): 112 % of control

SMILES: O=C1c2c(O)ccc(O)c2C(=O)c2c(NCCNCCO)ccc(NCCNCCO)c21
- T/C [14]: 94 % of control
- T/C (dose: 0.12 mg/kg/injection, schedule: Q01DX009 (ip), vehicle: water): 104 % of control
- T/C [7]: 101 % of control
- T/C (dose: 0.25 mg/kg/injection, schedule: Q01DX009 (ip), vehicle: water): 106 % of control
- T/C [8]: 100 % of control
- T/C [15]: 110 % of control
- T/C [9]: 123 % of control
- T/C [16]: 120 % of control

SMILES: O=C1NC(O)c2ccccc2O1 (configuration not stated)
- T/C [17]: 106 % of control
- T/C [18]: 89 % of control
- T/C [19]: 107 % of control
- T/C [20]: 97 % of control

SMILES: COC(=O)Nc1nc2ccc(C3(c4ccc(F)cc4)OCCO3)cc2[nH]1
- T/C [13]: 97 % of control
- T/C [1]: 106 % of control
- T/C [2]: 102 % of control
- T/C [3]: 104 % of control
- T/C [4]: 117 % of control

SMILES: O=C(O)C(O)C(O)C1[O][Sb][O]C1C(=O)O (configuration not stated)
- T/C [2]: 103 % of control
- T/C [3]: 108 % of control
- T/C [4]: 98 % of control
- T/C [5]: 108 % of control

SMILES: CCOC(=O)C1=C(C#N)C2(CCC(OCc3ccccc3)CC2)C(=O)O1 (configuration not stated)
- T/C (dose: 12.5 mg/kg/injection, schedule: Q01DX009 (ip), vehicle: suspension in saline): 94 % of control
- T/C [17]: 94 % of control
- T/C [18]: 92 % of control
- T/C [19]: 95 % of control
- T/C [20]: 102 % of control

From PubChem BioAssay AID276 (DTP/NCI, 2004)
